Measured values as given in patent EP1203770A1 (priority 1992, dated 1994).
pKi: −log10 of the molar value.

Target: T1, HIV-1 protease (Human immunodeficiency virus type 1 group M subtype B, UniProt P04585)
T1 construct: The protease (or proteinase), consisting of only 99 amino acids, is among the smallest enzymes known
Assay: In vitro HIV protease inhibitory assay (HIV Protease FITC Assay)
Format: biochemical
Details: for inhibition at 0.41 µM: HIV-1 Dose 0.410 uM; for inhibition at 1.23 µM: HIV-1 Dose 1.230 uM; for inhibition at 3.7 µM: HIV-1 Dose 3.700 uM; for inhibition at 11 µM: HIV-1 Dose 11.000 uM; for inhibition at 33 µM: HIV-1 Dose 33.000 uM; for inhibition at 100 µM: HIV-1 Dose 100.000 uM; for inhibition at 10 µM: HIV-1 Dose 10.000 uM; for pKi: read-out: HIV-1 FITC Ki; for inhibition at 1 µM: HIV-1 Dose 1.000 uM
Procedure: The HIV protease screening assay is based on a fluorescently labeled substrate which can be resolved from nonlabeled cleavage product using avidin-polystyrene particles, 0.7-0.9 µm. The substrate is biotinylated at the amino terminal arginine and fluorescently labeled with fluorescein isothiocynate (FITC) at the carboxyl terminal lysine. […] Substrate (20 µl of 0.2 µM), sample (10 µl of desired concentraion), and enzyme (10 µl of 0.1 µM) are added to a 96 well pandex plate. The assay is run in 0.1 M sodium acetate buffer at pH 5.5 in the presence of 1.0 M sodium chloride and 0.05% NP-40 and incubated in the dark for one hour at room temperature. Avidin coated polystyrene beads {40 µl of 0.1% (w/v)} are added and the incubation is continued in the dark for an additional half hour. The labeled cleavage product is separated from the unreacted substrate via filtration and is read on the Idexx Screen Machine. The data are analyzed by appropriate computer algorithms to ascertain percent inhibition values.

[1] = read-out: HIV-1 Protease % Inhib

SMILES | inhibition at 0.41 µM [1] [%] | inhibition at 1.23 µM [1] [%] | inhibition at 3.7 µM [1] [%] | inhibition at 11 µM [1] [%] | inhibition at 33 µM [1] [%] | inhibition at 100 µM [1] [%] | inhibition at 0.123 µM (HIV-1 Dose 0.123 uM, read-out: HIV-1 Protease % Inhib) [%] | inhibition at 0.37 µM (HIV-1 Dose 0.370 uM, read-out: HIV-1 Protease % Inhib) [%] | inhibition at 1.1 µM (HIV-1 Dose 1.100 uM, read-out: HIV-1 Protease % Inhib) [%] | inhibition at 3.3 µM (HIV-1 Dose 3.300 uM, read-out: HIV-1 Protease % Inhib) [%] | inhibition at 10 µM [1] [%] | inhibition at 30 µM (HIV-1 Dose 30.000 uM, read-out: HIV-1 Protease % Inhib) [%] | pKi | inhibition at 1 µM [1] [%]
CCC(Cc1ccccc1)c1cc(O)c(C(c2cccc(NC(=O)OCc3ccccc3)c2)C2CC2)c(=O)o1 (stereo not drawn) [Example 36, 3-(α-Cyclopropyl-meta-(benzyloxycarbonylamino)benzyl)-6-(α-ethyl-phenethyl)-4-hydroxy-2H-pyran-2-one] | < 10 | 13.7 | 43.4 | 73.7 | 77.2 | 87.5 | – | – | – | – | – | – | – | –
O=C(CCn1ccc2ccccc21)Nc1cccc(C(c2c(O)cc(C(CC3CC3)CC3CC3)oc2=O)C2CC2)c1 (stereo not shown) [Example 39, N-(3-(Cyclopropyl-[6-(2-cyclopropyl-1-cyclopropylmethyl-ethyl)-4-hydroxy-2-oxo-2H-pyran-3-yl]-methyl)-phenyl)-3-indol-1-yl-propionamide] | – | – | – | – | – | – | < 10 | 24.8 | 60.6 | 86.3 | 91.8 | 94.5 | 7.02 | –
CCCC(CCC)c1cc(O)c(C(CC)c2ccccc2)c(=O)o1 (stereo not shown) [Example 40, 4-Hydroxy-3-(1-phenyl-propyl)-6-(1-propyl-butyl)-pyran-2-one] | – | – | – | – | – | 80 | – | – | – | – | 79.5 | – | – | 37.2
C=CC(c1ccccc1)c1c(O)cc(C(CCC)CCC)oc1=O (stereo not shown) [Example 41, 4-Hydroxy-3-(1-phenyl-allyl)-6-(1-propyl-butyl)-pyran-2-one] | – | – | – | – | – | 80.9 | – | – | – | – | 65.9 | – | – | 21.2
CC(C)(C)OC(=O)CCc1cc(O)c(C(c2ccccc2)C2CC2)c(=O)o1 (stereo not shown) [Example 42, 3-(5-(Cyclopropyl-phenyl-methyl)-4-hydroxy-6-oxo-6H-pyran-2-yl)-propionic acid tert-butyl ester] | – | – | – | – | – | 105 | – | – | – | – | 74.7 | – | 6.28 | 19.7
Cc1noc(C)c1CCc1cc(O)c(C(c2ccccc2)C2CC2)c(=O)o1 (stereo not shown) [Example 43, 3-(Cyclopropyl-phenyl-methyl)-6-(2-(3,5-dimethyl-isoxazol-4-yl)-ethyl)-4-hydroxy-pyran-2-one] | – | – | – | – | – | 97.3 | – | – | – | – | 89.4 | – | 6.34 | 44.6
CC(C)(C)c1nc(CCc2cc(O)c(C(c3ccccc3)C3CC3)c(=O)o2)no1 (stereo not shown) [Example 44, 6-(2-(5-Tert-butyl-(1,2,4)oxadiazol-3-yl)-ethyl)-3-(cyclopropyl-phenyl-methyl)-4-hydroxy-pyran-2-one] | < 10 | 24.9 | 57.3 | 84.3 | 106 | 114 | – | – | – | – | – | – | 5.74 | –
CCC(CC1CCOC1)c1cc(O)c(C(c2ccccc2)C2CC2)c(=O)o1 (stereo not shown) [Example 45, 3-(Cyclopropyl-phenyl-methyl)-4-hydroxy-6-(1-(tetrahydro-furan-3-ylmethyl)-propyl)-pyran-2-one] | 79.3 | 94.4 | 101 | 103 | 114 | 116 | – | – | – | – | – | – | 7.28 | –
O=c1oc(C(Cc2ccccc2)Cc2ccccn2)cc(O)c1C(c1ccccc1)C1CC1 (stereo not shown) [Example 46, 3-(Cyclopropyl-phenyl-methyl)-4-hydroxy-6-(2-phenyl-1-pyridin-2-ylmethyl-ethyl)-pyran-2-one] | 29.2 | 65 | 91.6 | 94.2 | 103 | 115 | – | – | – | – | – | – | 6.50 | –
O=c1oc(CCC2OCCO2)cc(O)c1C(c1ccccc1)C1CC1 (stereo not shown) [Example 47, 3-(Cyclopropyl-phenyl-methyl)-6-(2-(1,3)dioxolan-2-yl-ethyl)-4-hydroxy-pyran-2-one] | < 10 | 19.4 | 50 | 73.2 | 91.3 | 107 | – | – | – | – | – | – | 6.30 | –
O=c1oc(CCCCN2CCOCC2)cc(O)c1C(c1ccccc1)C1CC1 (stereo not shown) [Example 48, 3-(Cyclopropyl-phenyl-methyl)-4-hydroxy-6-(4-morpholin-4-yl-butyl)-pyran-2-one] | < 10 | < 10 | < 10 | < 10 | 31.3 | 61.6 | – | – | – | – | – | – | – | –
O=c1oc(CCc2ccccn2)cc(O)c1C(c1ccccc1)C1CC1 (stereo not shown) [Example 49, 3-(Cyclopropyl-phenyl-methyl)-4-hydroxy-6-(2-pyridin-2-yl-ethyl)-pyran-2-one] | < 10 | 24.6 | 52.3 | 80 | 93.7 | 98.3 | – | – | – | – | – | – | 6.37 | –
Cc1nc(CCc2cc(O)c(C(c3ccccc3)C3CC3)c(=O)o2)cs1 (stereo not shown) [Example 50, 3-(Cyclopropyl-phenyl-methyl)-4-hydroxy-6-(2-(2-methyl-thiazol-4-yl)-ethyl)-pyran-2-one] | < 10 | 22.1 | 55.5 | 80.5 | 96 | 106 | – | – | – | – | – | – | 6.45 | –
O=c1oc(CCc2ccc3ccccc3n2)cc(O)c1C(c1ccccc1)C1CC1 (stereo not shown) [Example 51, 3-(Cyclopropyl-phenyl-methyl)-4-hydroxy-6-(2-quinolin-2-yl-ethyl)-pyran-2-one] | < 10 | < 10 | 23.4 | 50.7 | 70 | 83.7 | – | – | – | – | – | – | – | –
CCC(Cc1ccc(Cl)s1)c1cc(O)c(C(c2ccccc2)C2CC2)c(=O)o1 (stereo not shown) [Example 52, 6-(1-(5-Chloro-thiophen-2-ylmethyl)-propyl)-3-(cyclopropyl-phenyl-methyl)-4-hydroxy-pyran-2-one] | 66.6 | 86.2 | 106 | 112 | 116 | 113 | – | – | – | – | – | – | 7.37 | –
O=c1oc(CCCCl)cc(O)c1C(c1ccccc1)C1CC1 (stereo not shown) [Example 53, 6-(3-Chloro-propyl)3-(cyclopropyl-phenyl-methyl)-4-hydroxy-pyran-2-one] | 19.4 | 47.5 | 86 | 102 | 117 | 120 | – | – | – | – | – | – | 6.66 | –
CCC(Cc1c(C)noc1C)c1cc(O)c(C(c2ccccc2)C2CC2)c(=O)o1 (stereo not shown) [Example 54, 3-(Cyclopropyl-phenyl-methyl)-6(1-(3,5-dimethyl-isoxazol-4-ylmethyl)-propyl)-4-hydroxy-pyran-2-one] | 85 | 95.8 | 109 | 113 | 117 | 100 | – | – | – | – | – | – | 7.14 | –
CCC(Cc1csc(-c2ccc(Cl)cc2)n1)c1cc(O)c(C(c2ccccc2)C2CC2)c(=O)o1 (stereo not shown) [Example 55, 6-(1-(2-(4-Chloro-phenyl)-thiazol-4-ylmethyl)-propyl)-3-(cyclopropyl-phenyl-methyl)-4-hydroxy-pyran-2-one] | < 10 | 24.1 | 59.6 | 92.1 | 89.6 | 102 | – | – | – | – | – | – | 6.24 | –
